Measurements taken from publication PMC6268061, “Investigation of the Biological Properties of (Hetero)Aromatic Thiosemicarbazones” (Molecules, 2012).
≈ marks a conversion by molar mass, not a printed value. Where two headings read alike, the source gives them in different places.

Columns and labels:
Type in all cases: cell-based
[1] = test system: Candida albicans ATCC 44859; assay: In vitro antifungal susceptibility, broth microdilution; settings: read-out: MIC (IC80) CA
Candida tropicalis 156 = assay: as above; settings: read-out: MIC (IC80) CT
Candida krusei ATCC 6258 = assay: as above; settings: Pichia kudriavzevii, read-out: MIC (IC80) CK
Candida glabrata 20/I = assay: as above; settings: Nakaseomyces glabratus, read-out: MIC (IC80) CG
[2] = test system: Trichosporon beigelii 1188; assay: as above; settings: read-out: MIC (IC80) TB
In short: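 Twofold dilutions (500 to 0.975 μmol/L final) in RPMI 1640 with MOPS, pH 7.0, per CLSI broth microdilution. MIC taken as IC80 for yeasts (M27-A2) or IC50 for moulds (M38-A) versus drug-free control, read after 24 and 48 h static incubation at 35 °C.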

[3] = test system: Aspergillus fumigatus 231; assay: as above; settings: read-out: MIC (IC50) AF
Absidia corymbifera 272 = assay: as above; settings: read-out: MIC (IC50) AC
[4] = test system: Trichophyton mentagrophytes 445; assay: as above; settings: read-out: MIC (IC50) TM
[5] = test system: HCT-116 human colon cancer cells (p53 wild type); assay: In vitro antiproliferative activity, MTS assay; settings: HCT-116, 72 h incubation, MTS, read-out: HCT-116 IC50
Description: The antiproliferative activity of all of the compounds was examined against the human colon cancer (HCT-116) cell line using an MTS assay. The HCT-116 p53 wild type cell line was chosen on the basis of our former experience and some results on the activity of quinoline-based thiosemicarbazones that was published recently. Namely, compounds 4a–l have been tested previously for their wide-ranging anticancer activity. The antiproliferative activity of the compounds evaluated was assessed using Doxorubicin as a reference compound. In general, quinoline-based thiosemicarbazones 4 seem to have a much better anticancer activity than halogenophenyl compounds 3. Thus, the quinoline nucleus can be defined as being crucial for antiproliferative activity. A more detailed analysis of the anticancer activity of quinoline-based thiosemicarbazone is available. […] Nevertheless, some more general conclusions can be drawn from the gathered data. […] The free amino group or substitution pattern with small substituents such as methyl or ethyl are favorable for activity. According to our former results the chelating ability of the compounds may be one of the prerequisites of the antiproliferative activity. In this study we have measured the UV-VIS spectra of the compounds in presence of various concentration of Fe^3+ cations to observe its chelating potency (supplementary material). […] However as 4j give also two points at 330 and 385 nm, iron chelating ability should be regarded only as one of the factor influencing the biological activity.
The human colon cancer cell line HCT116 with the wild type p53 gene (p53^+/+) were obtained from Maria Sklodowska-Curie Memorial Cancer Center in Gliwice, Poland. Briefly, the cells were seeded in 96-well plates (3 × 10^3 cells/well) in cellular proliferation assays 24 h before the addition of the chelators. The assay was performed following a 72 h incubation with varying concentrations of the agents. Each compound was tested in triplicate in a single experiment with each experiment being repeated 3 times. After 72 h incubation with the compounds being investigated, 20 µL of MTS solution was added to each well (100 µL) and incubated for 1 h at 37 °C. The optical densities of the samples were analyzed at 490 nm. Results were expressed as a percentage of the control. The inhibitory concentration (IC50) was defined as the compound concentration necessary to reduce the absorbance to 50% of the untreated control.

[6] = Trichosporon beigelii, 1188, 24 h
[7] = Trichosporon beigelii, 1188, 48 h
[8] = Aspergillus fumigatus, 231, 24 h
[9] = Aspergillus fumigatus, 231, 48 h
[10] = Lichtheimia corymbifera, 272, 24 h
[11] = Lichtheimia corymbifera, 272, 48 h
[12] = Trichophyton mentagrophytes, 445, 72 h
[13] = Trichophyton mentagrophytes, 445, 120 h

Structure (SMILES): CN(C)C(=S)N/N=C/c1ccc(Br)cc1 [Compound 3m, (E)-2-(4-bromobenzylidene)-N,N-dimethylhydrazinecarbothioamide]
- MIC ([1]; ATCC44859, 24 h): 62.5 µM (≈ 17.9 µg/mL)
- MIC ([1]; ATCC44859, 48 h): 250 µM (≈ 71.5 µg/mL)
- MIC (Candida tropicalis 156; Candida tropicalis, 156, 24 h): > 500 µM
- MIC (Candida tropicalis 156; Candida tropicalis, 156, 48 h): > 500 µM
- MIC (Candida krusei ATCC 6258; ATCC6258, 24 h): > 500 µM
- MIC (Candida krusei ATCC 6258; ATCC6258, 48 h): > 500 µM
- MIC (Candida glabrata 20/I; 24 h): > 500 µM
- MIC (Candida glabrata 20/I; 48 h): > 500 µM
- MIC [2, 6]: 15.6 µM (≈ 4.47 µg/mL)
- MIC [2, 7]: 62.5 µM (≈ 17.9 µg/mL)
- IC50 [3, 8]: > 500 µM
- IC50 [3, 9]: > 500 µM
- IC50 (Absidia corymbifera 272; [10]): > 500 µM
- IC50 (Absidia corymbifera 272; [11]): > 500 µM
- IC50 [4, 12]: 62.5 µM
- IC50 [4, 13]: 62.5 µM
- IC50 [5]: 47.5 ± 2.4 µM

Structure (SMILES): NC(=S)N/N=C/c1ccc(Br)cc1 [Compound 3k, (E)-2-(4-Bromobenzylidene)hydrazinecarbothioamide]
- MIC ([1]; ATCC44859, 24 h): 500 µM (≈ 129 µg/mL)
- MIC ([1]; ATCC44859, 48 h): 500 µM (≈ 129 µg/mL)
- MIC (Candida tropicalis 156; Candida tropicalis, 156, 24 h): > 500 µM
- MIC (Candida tropicalis 156; Candida tropicalis, 156, 48 h): > 500 µM
- MIC (Candida krusei ATCC 6258; ATCC6258, 24 h): > 500 µM
- MIC (Candida krusei ATCC 6258; ATCC6258, 48 h): > 500 µM
- MIC (Candida glabrata 20/I; 24 h): > 500 µM
- MIC (Candida glabrata 20/I; 48 h): > 500 µM
- MIC [2, 6]: 500 µM (≈ 129 µg/mL)
- MIC [2, 7]: 500 µM (≈ 129 µg/mL)
- IC50 [3, 8]: > 500 µM
- IC50 [3, 9]: > 500 µM
- IC50 (Absidia corymbifera 272; [10]): > 500 µM
- IC50 (Absidia corymbifera 272; [11]): > 500 µM
- IC50 [4, 12]: > 500 µM
- IC50 [4, 13]: > 500 µM
- IC50 [5]: > 60 µM

Structure (SMILES): CN(C)C(=S)N/N=C/c1ccc(Cl)c(Cl)c1 [Compound 3h, (E)-2-(3,4-Dichlorobenzylidene)-N,N-dimethylhydrazinecarbothioamide]
- MIC ([1]; ATCC44859, 24 h): 15.6 µM (≈ 4.31 µg/mL)
- MIC ([1]; ATCC44859, 48 h): 31.2 µM (≈ 8.63 µg/mL)
- MIC (Candida tropicalis 156; Candida tropicalis, 156, 24 h): 500 µM (≈ 138 µg/mL)
- MIC (Candida tropicalis 156; Candida tropicalis, 156, 48 h): 500 µM (≈ 138 µg/mL)
- MIC (Candida krusei ATCC 6258; ATCC6258, 24 h): 500 µM (≈ 138 µg/mL)
- MIC (Candida krusei ATCC 6258; ATCC6258, 48 h): 500 µM (≈ 138 µg/mL)
- MIC (Candida glabrata 20/I; 24 h): 500 µM (≈ 138 µg/mL)
- MIC (Candida glabrata 20/I; 48 h): 500 µM (≈ 138 µg/mL)
- MIC [2, 6]: 125 µM (≈ 34.5 µg/mL)
- MIC [2, 7]: 500 µM (≈ 138 µg/mL)
- IC50 [3, 8]: > 500 µM
- IC50 [3, 9]: > 500 µM
- IC50 (Absidia corymbifera 272; [10]): > 500 µM
- IC50 (Absidia corymbifera 272; [11]): > 500 µM
- IC50 [4, 12]: 31.2 µM
- IC50 [4, 13]: 62.5 µM
- IC50 [5]: 47 ± 1.3 µM
